Laboratory results: patent US7317020B2, “Isolation and structure of Cribrostatin 6” (Arizona Board of Regents, a body corporate of the State of …, priority 2003, dated 2008)
Values after ≈ are worked out from the molar mass of the structure shown. Blank lines part the entries; values can stand above or below the molecule they belong to.

Key:
fungi = settings: in words; Pettit et al., J. Nat. Prod. 2000; cited from earlier work
bacteria = settings: in words; Pettit et al., J. Nat. Prod. 2000; cited from earlier work
SF-268 = test: Cancer cell growth inhibition, human cancer cell line panel; assay type: cell-based; settings: SF-268, CNS Glioblastoma, read-out: Inhibitory Activity (GI50)
KM20L2 = test: as above; assay type: cell-based; settings: KM-20L2, KM20L2, Colon-adenocarcinoma, read-out: Inhibitory Activity (GI50)
BXPC-3 = test: as above; assay type: cell-based; settings: BXPC-3, Pancreas-adenocarcinoma, read-out: Inhibitory Activity (GI50)
[1] = test system: P388 lymphocytic leukemia; test: Cancer cell growth inhibition, murine P388 lymphocytic leukemia; assay type: cell-based, mouse
Text: Earlier we had observed a number of biologically active blue to black colored fractions arising during P388 lymphocytic leukemia guided separations of a 195 g dichloromethane-soluble portion of the extract obtained from 350 kg (wet wt.) of Cribrochalina sp. The cancer cell growth (P-388) inhibitory dark-colored fractions were finally separated by a successive series of gel permeation and partition chromatographic techniques on Sephadex LH-20. That sequence was followed by high-speed countercurrent distribution using an Ito Coil-Planet centrifuge to afford 88 mg of a dark-blue constituent (P388 ED50 0.3 μg/ml), designated cribrostatin 6 (3). Owing to difficulties in unequivocally deducing the structure of this interesting substance based on spectral evidence, attempts were made at various times over a ten year period to reach a correct solution and/or to produce crystals suitable for X-ray structure determination. We were eventually pleased to find that cribrostatin 6 (3) would crystallize from acetone following long cold storage of the solution. To follow is a summary of the spectral and X-ray crystallographic interpretation that completed a correct structural assignment for cribrostatin 6 (3).
Isolation of Cribrostatin 6 (1). The blue marine sponge Cribrochalina sp. was collected and extracted as known to one of skill in the art, as described in Pettit, G., et al., J. Nat. Prod. […]

DU-145 = test: Cancer cell growth inhibition, human cancer cell line panel; assay type: cell-based; settings: DU-145, Prostate, read-out: Inhibitory Activity (GI50)
MCF-7 = test: as above; assay type: cell-based; settings: MCF7, MCF-7, Breast-adenocarcinoma, read-out: Inhibitory Activity (GI50)
[2] = test system: Stenotrophomonas maltophilia (ATCC 13637); test: Broth microdilution susceptibility assay; assay type: cell-based; settings: ATCC13637, read-out: Minimum Inhibitory Concentration
Text: (§1) Compounds were screened against bacteria and fungi according to established broth microdilution susceptibility assays, pursuant to the National Committee for Clinical Laboratory Standards, Methods for Dilution Antimicrobial Susceptibility Tests for Bacteria that Grow Aerobically, Approved Standard M7-A4, Wayne, Pa.: NCCLS, 1997, and the National Conmnittee for Clinical Laboratory Standards, Reference Method for Broth Dilution Antifungal Susceptibility Testing of Yeasts, Approved Standard M27-A, Wayne, Pa.: NCCLS, 1997. The minimum inhibitory concentration was defined as the lowest concentration of compound that inhibited all visible growth of the test organism (optically clear). Assays were repeated on separate days.

[3] = test system: Enterococcus faecalis (ATCC 29212); test: Broth microdilution susceptibility assay; assay type: cell-based; settings: ATCC29212, read-out: Minimum Inhibitory Concentration
Text: as §1

[4] = test system: Invasive S. pneumoniae (clinical isolate); test: Broth microdilution susceptibility assay; assay type: cell-based; settings: Streptococcus pneumoniae, read-out: Minimum Inhibitory Concentration
Text: as §1

[5] = test system: Vancomycin-resistant E. faecalis (clinical isolate); test: Broth microdilution susceptibility assay; assay type: cell-based; settings: Enterococcus faecalis, read-out: Minimum Inhibitory Concentration
Text: as §1

[6] = test system: Cryptococcus neoformans (ATCC 90112); test: Broth microdilution susceptibility assay; assay type: cell-based; settings: ATCC90112, read-out: Minimum Inhibitory Concentration
Text: as §1

[7] = test system: Penicillin-resistant S. pneumoniae (clinical isolate); test: Broth microdilution susceptibility assay; assay type: cell-based; settings: Streptococcus pneumoniae, read-out: Minimum Inhibitory Concentration
Text: as §1

[8] = test system: Neisseria gonorrhoeae (ATCC 49226); test: Broth microdilution susceptibility assay; assay type: cell-based; settings: ATCC49226, read-out: Minimum Inhibitory Concentration
Text: as §1

[9] = test system: Enterobacter cloacae (ATCC 13047); test: Broth microdilution susceptibility assay; assay type: cell-based; settings: ATCC13047, read-out: Minimum Inhibitory Concentration
Text: as §1

[10] = test system: Staphylococcus aureus (ATCC 29213); test: Broth microdilution susceptibility assay; assay type: cell-based; settings: ATCC29213, read-out: Minimum Inhibitory Concentration
Text: as §1

[11] = test system: Group A Streptococcus (clinical isolate); test: Broth microdilution susceptibility assay; assay type: cell-based; settings: read-out: Minimum Inhibitory Concentration
Text: as §1

[12] = test system: Escherichia coli (ATCC 25922); test: Broth microdilution susceptibility assay; assay type: cell-based; settings: ATCC25922, read-out: Minimum Inhibitory Concentration
Text: as §1

[13] = test system: Micrococcus luteus (Presque Isle 456); test: Broth microdilution susceptibility assay; assay type: cell-based; settings: read-out: Minimum Inhibitory Concentration
Text: as §1

[14] = test system: Candida albicans (ATCC 90028); test: Broth microdilution susceptibility assay; assay type: cell-based; settings: ATCC90028, read-out: Minimum Inhibitory Concentration
Text: as §1

[15] = test system: Methicillin-resistant S. aureus (clinical isolate); test: Broth microdilution susceptibility assay; assay type: cell-based; settings: Staphylococcus aureus, read-out: Minimum Inhibitory Concentration
Text: as §1

[16] = test system: Streptococcus pneumoniae (ATCC 6303); test: Broth microdilution susceptibility assay; assay type: cell-based; settings: ATCC6303, read-out: Minimum Inhibitory Concentration
Text: as §1

[17] = test system: Bacillus subtilis (clinical isolate); test: Broth microdilution susceptibility assay; assay type: cell-based; settings: read-out: Minimum Inhibitory Concentration
Text: as §1

NCI-H460 = test: Cancer cell growth inhibition, human cancer cell line panel; assay type: cell-based; settings: NCI-H460, Lung-NSC, read-out: Inhibitory Activity (GI50)

Compound: C/C=C(/C)C(=O)OCc1nccc2c1C(=O)C(N)=C(C)C2=O [Cribrostatin 3]
antifungal activity (fungi): not antifungal
antibacterial activity (bacteria): antibacterial

GI50 (SF-268): 0.24 µg/mL (≈ 0.888 µM)
GI50 (KM20L2): > 1 µg/mL
GI50 (BXPC-3): > 1 µg/mL
GI50 ([1]; P388, Mouse Leukemia, read-out: Inhibitory Activity (GI50)): 0.29 µg/mL (≈ 1.07 µM)
GI50 (DU-145): 0.38 µg/mL (≈ 1.41 µM)
GI50 (MCF-7): 0.21 µg/mL (≈ 0.777 µM)
MIC [2]: > 64 µg/mL
MIC [3]: 32 µg/mL (≈ 118 µM)
MIC [4]: 1 µg/mL (≈ 3.7 µM)
MIC [5]: 32 µg/mL (≈ 118 µM)
MIC [6]: 2 µg/mL (≈ 7.4 µM)
MIC [7]: 2 µg/mL (≈ 7.4 µM)
MIC [8]: 0.0625 µg/mL (≈ 0.231 µM)
MIC [9]: > 64 µg/mL
MIC [10]: 16 µg/mL (≈ 59.2 µM)
MIC [11]: 16 µg/mL (≈ 59.2 µM)
MIC [12]: > 64 µg/mL
MIC [13]: 16 µg/mL (≈ 59.2 µM)
MIC [14]: 64 µg/mL (≈ 237 µM)
MIC [15]: 16 µg/mL (≈ 59.2 µM)
MIC [16]: 0.5 µg/mL (≈ 1.85 µM)
MIC [17]: 2 µg/mL (≈ 7.4 µM)
GI50 (NCI-H460): > 1 µg/mL
Compound: CCOC1=C(C)C(=O)c2ccn3c(C)ncc3c2C1=O [Cribrostatin 6, 9-ethoxy-3,8-dimethyl-imidazo[5,1-a]isoquinoline-7, 10-dione]
P388 ED50 ([1]; murine P-388 lymphocytic leukemia cell line): 0.3 µg/mL

Compound: CC1=C(N)C(=O)c2c(ccnc2C)C1=O [Cribrostatin 1]
antifungal activity (fungi): not antifungal
antibacterial activity (bacteria): antibacterial
